Data as given in US20240108687A1, “COMPOSITIONS AND METHODS FOR USING COMBINATIONS OF ACTIN-BASED PEPTIDES TO MODULATE CELLULAR BIOACTIVITY” (Virongy L.L.C., priority 2021, published 2024).

What was measured:
HIV-1 [1] = details: CD4 T lymphocytes; cited from earlier work
Influenza A virus (IAV) [2] = details: MDCK cells; cited from earlier work
HIV-1 [3] = details: cited from earlier work
Measles virus (MeV) = details: cited from earlier work
[4] = tested on: lenti-GFP vector viral particles; experiment: Lentiviral vector (lenti-GFP) transduction of cells, flow cytometry; details: B11-20AA plus polybrene, 3 days post infection, viable cells (low PI)
Experimental: Viral transduction of cells was measured at 3 days post infection by flow cytometry. (A) uninfected cells control. (B) Cells were infected with a lenti-GFP vector viral particles. […] Transduction efficiency was measured by the percentage of GFP+ cells. PI,_propidium iodide, was added before flow cytometry for cytotoxicity control (FL3). GFP+ cells were counted only when the cells are viable (low PI staining).

[5] = tested on: Lenti-GFP virion particles; experiment: Lentiviral virion infectivity after virion incorporation of actin-based peptide; details: virions first incubated with peptide to allow virion incorporation; equal amount of virions
Experimental: (A) Uninfected cells control. (B) Lenti-GFP virion particles were used to directly infect target cells. […] An equal amount of virion particles in (B) and (C) were used for infection. Virion infectivity was measured by the percentage of GFP+ cells.

CD325 (N-cadherin) = experiment: Surface expression of CD325 on H9 lymphocytes, flow cytometry; assay type: cell-based, Human; details: H9 lymphocytes treated 40 minutes
Experimental: (§1) FIG. 7: Example of actin-based peptide to enhance surface expression of multiple cellular receptors including CD325 (N-cadherin), CD144 (VE-cadherin), and CD324 (E-cadherin), which are surface molecule for cell-cell and cell-extracellular matrix binding and adhesion. (A) Human H9 lymphocyte (derivative of HutT 78 cell, from ATCC) were not treated or treated with an actin-based peptide (N7-20AA) for 40 minutes. Cells were stained on ice with PerCy-Cy5.5-labeled mouse anti-human CD325 antibody. Surface expression of CD325 before and after N7-20AA was quantified by flow cytometer. […] (B) Human H9 lymphocyte were not treated or treated with an actin-based peptide (N7-20AA) for 40 minutes. Cells were stained on ice with FITC-labeled mouse anti-human CD144 antibody. Surface expression of CD144 before and after N7-20AA was quantified by flow cytometer. […] (C) Human H9 lymphocyte were not treated or treated with an actin-based peptide (N7-20AA) for 40 minutes. Cells were stained on ice with PE-labeled mouse anti-human CD324 antibody. Surface expression of CD324 before and after N7-20A was quantified by flow cytometer.

CD144 (VE-cadherin) = experiment: Surface expression of CD144 on H9 lymphocytes, flow cytometry; assay type: cell-based, Human; details: H9 lymphocytes treated 40 minutes
Experimental: as §1

CD324 (E-cadherin) = experiment: Surface expression of CD324 on H9 lymphocytes, flow cytometry; assay type: cell-based, Human; details: H9 lymphocytes treated 40 minutes
Experimental: as §1

HEK293T cells = experiment: Liposome transfection of GFP-expression vector DNA with actin-based peptide; assay type: cell-based; details: Lenti-GFP DNA + liposome + peptide, 48 hours post transfection
Experimental: FIG. 6: Example of combination of actin-based peptide with liposome to deliver nucleic acids into cells. HEK293T cells were transfected with a GFP-expression vector DNA (Lenti-GFP) in complex with liposome (DNA+Lipo) or with liposome and an actin-based peptide (N9-A20) (DNA+Lipo+N9). Following transfection, cells were quantified for GFP expression at 48 hours post transfection by flow cytometry.

[6] = tested on: Murine leukemia virus (MLV), Avian leukosis virus (ALV), and Human immunodeficiency virus (HIV); details: HEK293T cells transfected with viral receptors; cited from earlier work
HIV-1 [7] = details: cited from earlier work; remark: listed apart in the source
Influenza A virus (IAV) [8] = details: cited from earlier work
Influenza A virus (IAV) [9] = details: cited from earlier work; remark: listed apart in the source
Influenza A virus (IAV) [10] = details: IAV-infected mice vs solvent-treated control; cited from earlier work

O=C1CSC(c2cccc(Br)c2)N1c1cc(Cl)ccc1O (stereo not drawn) [CK-548]
CD4 T cell activation and cytotoxicity at effective dosages (HIV-1 [1]): did not affect CD4 T cell activation or induce cytotoxicity | HIV-1 replication (HIV-1 [1]): dramatically reduced HIV-1 replication

C/C1=C/C(=O)O[C@@H]2C[C@@H](CC[C@H](C)/C=C\C=C\CC1)O[C@@](O)([C@@H]1CSC(=O)N1)C2 [latrunculin A]
Distribution of plasma membrane HA, lipid rafts and actin (Influenza A virus (IAV) [2]): dramatically redistributed | gag mRNA localisation (HIV-1 [3]): caused retention of gag mRNA in the nucleus

C/C1=C\[C@H](C)C[C@H](C)OC(=O)C[C@H](c2ccc(O)cc2)NC(=O)[C@@H](Cc2c(Br)[nH]c3ccccc23)N(C)C(=O)[C@H](C)NC(=O)[C@@H](C)C1 [jasplakinolide]
Distribution of plasma membrane HA, lipid rafts and actin (Influenza A virus (IAV) [2]): dramatically redistributed | Co-transport of M-RNP to the cell surface (Measles virus (MeV)): not affecting M-RNP co-transport | Free-virus production (Measles virus (MeV)): blocked free-virus production

RRRRRRRR(G/A)0-20DIKEKLCYVALDFEQEMATA [B11-20AA]
Transduction efficiency (percentage of GFP+ cells) [4]: Enhancement of lentiviral vector transduction | Virion infectivity (percentage of GFP+ cells) [5]: Enhancement of lentiviral virion infectivity

RRRRRRRR(G/A)0-20QIMFETFNTPAMYVAIQAVL [N7-20AA]
Surface expression of CD325 (CD325 (N-cadherin)): up-regulation of surface expression of CD325 | Surface expression of CD144 (CD144 (VE-cadherin)): up-regulation of surface expression of CD144 | Surface expression of CD324 (CD324 (E-cadherin)): up-regulation of surface expression of CD324

RRRRRRRR(G/A)0-20HTVPIYEGYALPHAILRLDL [N9-A20]
Delivery of nucleic acids into cells (GFP expression) (HEK293T cells): enhances delivery of nucleic acids into cells

C=C1[C@@H](C)[C@H]2[C@H](Cc3ccccc3)NC(=O)[C@]23[C@H](OC(C)=O)/C=C/[C@@](C)(O)C(=O)[C@@H](C)C/C=C/[C@H]3[C@@H]1O [cytochalasin D]
Distribution of plasma membrane HA, lipid rafts and actin (Influenza A virus (IAV) [2]): dramatically redistributed | Virus surfing [6]: eliminated virus surfing | Actin and H co-immunoprecipitation with M protein (Measles virus (MeV)): dramatically reduced actin co-immunoprecipitating with M, while enhancing H co-immunoprecipitation | Co-transport of M-RNP to the cell surface (Measles virus (MeV)): reduces co-transport of M-RNP to the cell surface | Rate of cell-cell fusion (Measles virus (MeV)): enhanced the rate of cell-cell fusion | Accumulation of early and late reverse transcription products (HIV-1 [7]; pretreating cells, not 2 hours post-infection): reduced the accumulation of early and late reverse transcription products | Reduction of nuclear accumulation of late RT products (HIV-1 [7]; pretreatment): 25 fold | Titers of filamentous and spherical virions (Influenza A virus (IAV) [8]): dramatically abrogated the titers of the filamentous, but not spherical, virions

CCN(CC)CCCC(C)Nc1nc(C)cc(Nc2ccc3nc(C)cc(N)c3c2)n1 (stereo not drawn) [NSC23766]
IC50 (Influenza A virus (IAV) [9]; A549 cells, read-out: IC50, reduction of viral replication): 22 µM | Viral protein expression (Influenza A virus (IAV) [9]): reduced viral protein expression | Body weights (Influenza A virus (IAV) [10]): increased body weights | Survivability (Influenza A virus (IAV) [10]): higher survivability | Titer of IAV in lung tissue (Influenza A virus (IAV) [10]): reduce titer of IAV in lung tissue

Cc1ccc2c(c1)C(=O)C1(O)CCN(c3ccccc3)C1=N2 (stereo not drawn) [blebbistatin]
Virus surfing [6]: eliminated virus surfing
